Assay results published in patent US20260207559A1, “(S)-(3-(1-(1H-IMIDAZOL-4-YL)ETHYL)-2-METHYLPHENYL)METHANOL FOR TREATMENT OF AGITATION” (Alceptor Therapeutics, Inc., priority 2022, published 2026).
Like-named read-outs stand apart in the source and are kept apart here.

Columns and labels:
[1] = Pharmacokinetics after IV or oral dosing in mice
Protocol: (§1) Groups of rodents were dosed either intravenously or orally in order to determine certain pharmacokinetic properties, including oral bioavailability and half-life. Bioavailability was determined by comparing plasma exposure following IV dosing in a [19% hydroxypropyl beta-cyclodextrin/5% DMSO in saline] formulation with plasma exposure following dosing by oral gavage in a 0.5% methyl cellulose formulation.

in vivo = assay: in vivo
Protocol: as §1

[2] = Pharmacokinetics in rodents, plasma and brain (species not specified)
Protocol: as §1

laboratory rodents = system: laboratory rodents
Source text: The resident-intruder model is an established preclinical model of aggression and agitation, and allows spontaneous and natural expression of both offensive aggression/agitation and defensive behavior in laboratory rodents in a semi natural laboratory setting. […] The latency to attack and the number of attacks are measures of agitation.

Mice = details: for Inhibition of distance travelled: 30-minute session
Protocol: Sedation is assessed in the Locomotor Activity (LMA) model. Mice are placed in a novel chamber and their exploratory activity during a 30-minute session is measured as distance traveled.

[3] = system: 7 different human CYP enzymes; assay: Metabolism by panel of human recombinant CYP enzymes, % compound remaining; details: all incubations (7 CYPs); 2 µM; up to 60 min; NADPH
CYP2B6 = CYP2B6 (Homo sapiens, UniProt P20813); details: recombinant enzyme, 1 h, 2 µM
CYP2C8 = CYP2C8 (Homo sapiens, UniProt P10632); details: recombinant enzyme, 1 h, 2 µM
CYP2C19 = CYP2C19 (Homo sapiens, UniProt P33261); details: recombinant enzyme, 1 h, 2 µM
CYP2D6 = CYP2D6 (Homo sapiens, UniProt P10635); details: recombinant enzyme, 1 h, 2 µM
CYP3A4 = CYP3A4 (Homo sapiens, UniProt P08684); details: recombinant enzyme, 1 h, 2 µM
Chain of CYP3A4 (P08684 whole entry): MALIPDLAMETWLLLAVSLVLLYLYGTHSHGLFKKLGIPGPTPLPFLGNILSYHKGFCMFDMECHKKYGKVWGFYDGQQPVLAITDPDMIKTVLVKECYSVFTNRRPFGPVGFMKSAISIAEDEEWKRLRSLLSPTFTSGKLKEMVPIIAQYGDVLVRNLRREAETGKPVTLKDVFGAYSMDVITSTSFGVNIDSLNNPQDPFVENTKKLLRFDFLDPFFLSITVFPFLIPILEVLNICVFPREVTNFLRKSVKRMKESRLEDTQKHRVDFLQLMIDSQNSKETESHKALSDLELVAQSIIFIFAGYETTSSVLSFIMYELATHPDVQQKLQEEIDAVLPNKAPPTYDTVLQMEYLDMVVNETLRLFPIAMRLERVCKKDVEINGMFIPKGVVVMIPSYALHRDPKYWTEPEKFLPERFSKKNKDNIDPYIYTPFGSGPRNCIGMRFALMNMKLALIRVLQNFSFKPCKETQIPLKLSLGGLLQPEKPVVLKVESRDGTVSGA

Chain of CYP2D6 (P10635 whole entry): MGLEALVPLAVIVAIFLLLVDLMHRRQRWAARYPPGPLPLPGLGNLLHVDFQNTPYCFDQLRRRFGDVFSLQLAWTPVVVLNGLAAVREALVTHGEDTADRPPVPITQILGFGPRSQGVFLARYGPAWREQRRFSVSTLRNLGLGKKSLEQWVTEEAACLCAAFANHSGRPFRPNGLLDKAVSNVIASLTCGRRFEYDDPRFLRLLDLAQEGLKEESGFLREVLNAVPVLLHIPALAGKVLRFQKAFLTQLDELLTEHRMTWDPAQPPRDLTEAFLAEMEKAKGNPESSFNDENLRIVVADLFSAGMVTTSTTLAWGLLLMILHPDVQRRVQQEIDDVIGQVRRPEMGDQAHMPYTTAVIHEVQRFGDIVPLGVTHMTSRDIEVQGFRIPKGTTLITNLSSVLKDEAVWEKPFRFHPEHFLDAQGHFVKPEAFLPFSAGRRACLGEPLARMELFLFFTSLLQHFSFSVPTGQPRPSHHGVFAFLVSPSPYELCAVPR
Chain of CYP2B6 (P20813 whole entry): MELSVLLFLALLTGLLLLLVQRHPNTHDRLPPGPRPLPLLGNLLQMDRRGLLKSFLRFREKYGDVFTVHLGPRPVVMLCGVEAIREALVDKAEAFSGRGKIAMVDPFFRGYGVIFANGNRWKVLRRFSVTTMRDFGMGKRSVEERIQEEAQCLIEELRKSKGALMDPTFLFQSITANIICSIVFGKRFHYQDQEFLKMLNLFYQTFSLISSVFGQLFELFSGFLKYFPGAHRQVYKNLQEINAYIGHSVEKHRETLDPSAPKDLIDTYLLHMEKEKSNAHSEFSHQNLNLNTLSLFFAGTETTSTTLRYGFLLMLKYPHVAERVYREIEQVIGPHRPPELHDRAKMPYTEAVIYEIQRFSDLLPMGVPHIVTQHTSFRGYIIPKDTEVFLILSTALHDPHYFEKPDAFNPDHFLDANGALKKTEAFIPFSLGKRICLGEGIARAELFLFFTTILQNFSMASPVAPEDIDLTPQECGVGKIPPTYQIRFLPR
Chain of CYP2C19 (P33261 whole entry): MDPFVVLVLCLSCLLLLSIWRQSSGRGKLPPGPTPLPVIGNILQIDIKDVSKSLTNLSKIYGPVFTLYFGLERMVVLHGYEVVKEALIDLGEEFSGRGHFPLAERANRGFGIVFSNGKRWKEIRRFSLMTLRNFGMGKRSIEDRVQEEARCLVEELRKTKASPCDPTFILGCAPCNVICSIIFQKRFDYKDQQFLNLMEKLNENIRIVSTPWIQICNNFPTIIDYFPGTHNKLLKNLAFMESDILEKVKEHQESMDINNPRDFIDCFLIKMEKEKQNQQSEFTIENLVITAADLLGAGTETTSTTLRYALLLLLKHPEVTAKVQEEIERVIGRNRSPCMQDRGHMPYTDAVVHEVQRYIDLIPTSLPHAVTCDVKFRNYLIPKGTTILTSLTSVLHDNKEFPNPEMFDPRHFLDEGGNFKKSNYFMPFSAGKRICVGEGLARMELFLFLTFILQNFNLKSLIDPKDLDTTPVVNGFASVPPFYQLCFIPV
Chain of CYP2C8 (P10632 whole entry): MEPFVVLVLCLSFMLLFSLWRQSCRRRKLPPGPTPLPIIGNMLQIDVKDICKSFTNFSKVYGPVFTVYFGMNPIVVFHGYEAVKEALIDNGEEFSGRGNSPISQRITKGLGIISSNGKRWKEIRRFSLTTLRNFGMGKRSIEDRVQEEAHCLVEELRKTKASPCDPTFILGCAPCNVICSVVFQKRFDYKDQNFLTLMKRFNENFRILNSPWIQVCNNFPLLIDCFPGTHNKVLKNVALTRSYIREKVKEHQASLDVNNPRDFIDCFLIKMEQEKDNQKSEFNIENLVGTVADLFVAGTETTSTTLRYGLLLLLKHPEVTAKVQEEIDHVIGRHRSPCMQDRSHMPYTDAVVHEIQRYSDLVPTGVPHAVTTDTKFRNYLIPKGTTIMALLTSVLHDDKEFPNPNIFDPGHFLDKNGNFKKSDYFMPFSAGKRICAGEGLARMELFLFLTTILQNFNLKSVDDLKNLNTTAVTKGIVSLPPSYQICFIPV

Q: Which “Time to maximum plasma concentration” value ([1]; mice) does the source give for `Cc1c(CO)cccc1[C@H](C)c1c[nH]cn1` here?
A: Its value is no more than 10 min.

Q: And the bioavailability ([1]; mouse, plasma, oral)?
A: Its bioavailability is no more than 51%.

Q: What about the bioavailability (in vivo; rat, in vivo) of the same molecule?
A: Its bioavailability is no more than 34%.

Q: What about the “Time to maximum plasma concentration” value (in vivo; rats) of the same molecule?
A: Its value is no more than 17 min.

Q: What about the “Mean decrease of levels in plasma and brain” value ([2]; between 2 and 8 hrs) of the same molecule?
A: The value was less than 2 fold.

Q: What about the “Time to achieve pharmacological concentrations in the brain” value ([2]; brain) of the same molecule?
A: The value was no more than 30 minutes.

Q: What about the half-life ([2]; plasma, po) of the same molecule?
A: The half-life was 4.2 to 7 h.

Q: What about the “Half-life relative to dexmedetomidine (longer)” value ([2]; rodents (mice and rats), plasma, oral) of the same molecule?
A: The value was 2- to 4 fold.

Q: And the “Activity in resident-intruder model” value (laboratory rodents; 1 mg/kg)?
A: The value was “minimal activity”.

Q: And the “Sedation in LMA model” value (Mice; 1 mg/kg)?
A: Its value is “minimally sedating”.

Q: What about the “Inhibition of distance travelled” value (Mice; 2 mg/kg) of the same molecule?
A: The value was “about 25%”.

Q: And the “Inhibition of distance travelled” value (Mice; 3 mg/kg)?
A: Its value is less than 50%.

Q: And the “Maximum achievable level of activity in the LMA model” value (Mice; compared with dexmedetomidine)?
A: The value was “less than the maximum achievable level of activity with dexmedetomidine”.

Q: And the “Concentration as % of the starting concentration” value [3]?
A: The value was greater than 90%.

Q: What does the source list for `Cc1cccc([C@H](C)c2cnc[nH]2)c1C` [dexmedetomidine]?
A: bioavailability (in vivo; rat, in vivo, po): 8.6%; half-life (in vivo; rat, in vivo, po): 2 h; Inhibition of attacks (laboratory rodents; 0.2 mg/kg): 20%; % of compound remaining (CYP2B6): 28%; % of compound remaining (CYP2C8): 84%; % of compound remaining (CYP2C19): 74%; % of compound remaining (CYP2D6): 7%; % of compound remaining (CYP3A4): 89%

Q: For `Cc1c(CO)cccc1[C@@H](C)c1c[nH]cn1` [(R)-(3-(1-(1H-imidazol-4-yl)ethyl)-2-methylphenyl)methanol], which bioavailability (in vivo; rat, in vivo, po) is on record?
A: The bioavailability was 7%.
